The values that follow come from patent USRE47351E1 (Gilead Sciences, Inc., priority 1999, dated 2019).

Molecules are shown by their SMILES. Like-named read-outs stand apart in the source and are kept apart here.

Broadly, the EC50 is the concentration at which the effect is half-maximal. The low end stands for a more potent agent, the high end for a less potent agent.

Test [1] has as its target A1 AdoR (Cavia porcellus (Guinea pig), UniProt P47745). As to the method:
(§1) In experiments in which A1 adenosine receptor-mediated negative dromotropic effect was measured, atrial and ventricular surface electrograms were recorded during constant atrial pacing.
(§2) A1 adenosine receptor-mediated depression of A-V nodal conduction time (negative dromotropic effect) was measured. Atrial and ventricular surface electrograms in rats and His bundle electrogram in guinea pigs, were recorded during constant atrial pacing.
(§3) Hearts were instrumented for continuous recording of coronary perfusion pressure (A2A response) and atrioventricular (A-V) conduction time or S-H interval (A1 response).

Test [2] addresses human A2BAdoR (Homo sapiens (Human), UniProt P29275). The experiment in a line: Competition for [3H]CPX binding sites on HEK-hA2BAdoR membranes. The following applies: compound at 10 μM. As to the method:
(§4) Cell culture and membrane preparation-PC12 cells were obtained from the American Type Culture Collection and grown in DMEM with 5% fetal bovine serum, 10% horse serum, 0.5 mmol/L L-glutamine, 100 U/mL penicillin, 0.1 mg/mL streptomycin, and 2.5 μg/mL amphotericin. HEK-293 cells stably expressing recombinant human A2BAdoRs (HEK-hA2BAdoR) were grown in DMEM supplemented with 10% fetal bovine serum and 0.5 mg/mL G-418. CHOK1 cells stably expressing the recombinant human A1AdoR (CHO-hA1AdoR) and A3AdoR (CHO-hA3AdoR) were grown as monolayers on 150-mm plastic culture dishes in Ham's F-12 media supplemented with 10% fetal bovine serum in the presence of 0.5 mg/mL G-418. Cells were cultured in an atmosphere of 5% CO2/95% air maintained at 37° C.
(§5) To make membranes, cells were detached from the culture plates into ice-cold 50 mmol/L Tris-HCl buffer (pH7.4). […] The protein concentration of membrane suspensions was determined using the Bradford method (Bio-Rad) with bovine serum as standards. […]
(§6) The affinity ([…]) of various CVT compounds for the A1 and A2A adenosine receptor were determined by their potency to compete for [^3H]CPX (A1) or [^3H]ZM241385 (A2A) binding sites on membranes derived from CHO-hA1AdoR, PC12 or HEK-HA2AAdoR cells. […] The affinity of selected compounds for A2B and A3 receptors were assessed by their potencies to compete for [^3H] […]

For test [3], the target named is human A2AAdoR (Homo sapiens (Human), UniProt P29274). The following applies: conclusion of Example 15. As to the method: Adenosine deaminase was purchased from Boehringer Mannheim Biochemicals Indianapolis, Id., U.S.A). [^3H]ZM241385 (Lot No. 1) was purchased from Tocris Cookson Ltd (Langford, Bristol, UK).
At the end of incubation, bound and free radioligands were separated by filtration through Whatman GF/C glass fiber filters using a Brandel tissue harvester (Gaithersburg, Md.). Triplicate determinations were performed for each concentration of the competing agent.
The affinity ([…]) of various CVT compounds for the A1 and A2A adenosine receptor were determined by their potency to compete for [^3H]CPX (A1) or [^3H]ZM241385 (A2A) binding sites on membranes derived from CHO-hA1AdoR, PC12 or HEK-HA2AAdoR cells. […] The affinity of selected compounds for A2B and A3 receptors were assessed by their potencies to compete for [^3H] […] ABMECA (A3) binding sites on membranes derived from HEK-hA2BAdoR and CHO-hA3AdoR cells, respectively.

Test [4] concerns the target A2A receptor (Sus scrofa, UniProt K9IW67). The experiment in a line: A2A receptor affinity in pig striatum membrane prep (tritiated ZM 241385 displacement). In kind it is binding. The following applies: read-out: A2a Ki; pig striatal membranes, displacement of tritiated ZM 241385 (2 nM), 23° C. 2 h. As to the method: Compounds of this invention were assayed to determine their affinity for the A2A receptor in a pig striatum membrane prep. […]. To the pig membranes was added 2 μL of serially diluted DMSO stock solution of the compounds of this invention at concentrations ranging from 10 nM to 100 microM or the control received 2 microL of DMSO alone, then the antagonist ZM 241385 in Tris buffer (50 mM, pH of 7.4) was added to achieve a final concentration of 2 nM. After incubation at 23° C. for 2 h, then the solutions were filtered using a membrane harvester using multiple washing of the membranes (3×). The filter disks were counted in scintillation cocktail to determine the amount of displacement of tritiated ZM displaced by the compounds of this invention. Greater than a 5 point curve was used to generate Ki's and the number of experiments is indicated in the column marked in Table 1 below.

In test [5] the target is A2A AdoR (Cavia porcellus (Guinea pig), UniProt P46616).
Excerpt: as §3

Test [6] has as its target A2A AdoR (Rattus norvegicus (Rat), UniProt P30543).
Excerpt: as §3

The target of test [7] is human A1AdoR (Homo sapiens (Human), UniProt P30542). The experiment in a line: Competition binding, [3H]DPCPX/[3H]CPX sites on CHO-hA1AdoR cell membranes. The following applies: in presence of Gpp(NH)p 100 μM.
The target in test [8] is A1 AdoR (Rattus norvegicus (Rat), UniProt P25099). Put plainly: A-V nodal conduction time (negative dromotropic effect) in rat isolated perfused hearts. The following applies: Compound 16 0.1-30 μM, CVT510 100-400 nM. As to the method: as §1, §2, §3
The target of test [9] is human A3AdoR (Homo sapiens (Human), UniProt P0DMS8). The experiment in a line: Competition for [125I]ABMECA binding sites on CHO-hA3AdoR membranes. The following applies: compound at 10 μM. The method, then:
as §4, §5, §6

Chain of human A1AdoR (P30542 whole entry, the tested form may be a part): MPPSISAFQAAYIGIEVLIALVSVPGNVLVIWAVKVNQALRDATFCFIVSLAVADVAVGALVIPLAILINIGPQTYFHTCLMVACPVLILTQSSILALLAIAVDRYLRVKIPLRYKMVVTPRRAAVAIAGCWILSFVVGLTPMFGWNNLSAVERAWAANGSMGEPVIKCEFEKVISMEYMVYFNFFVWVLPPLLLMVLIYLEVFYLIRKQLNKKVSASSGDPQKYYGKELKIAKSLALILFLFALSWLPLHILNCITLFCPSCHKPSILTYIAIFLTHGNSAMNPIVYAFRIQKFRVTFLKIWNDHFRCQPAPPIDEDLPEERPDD
Chain of human A2AAdoR (P29274 whole entry): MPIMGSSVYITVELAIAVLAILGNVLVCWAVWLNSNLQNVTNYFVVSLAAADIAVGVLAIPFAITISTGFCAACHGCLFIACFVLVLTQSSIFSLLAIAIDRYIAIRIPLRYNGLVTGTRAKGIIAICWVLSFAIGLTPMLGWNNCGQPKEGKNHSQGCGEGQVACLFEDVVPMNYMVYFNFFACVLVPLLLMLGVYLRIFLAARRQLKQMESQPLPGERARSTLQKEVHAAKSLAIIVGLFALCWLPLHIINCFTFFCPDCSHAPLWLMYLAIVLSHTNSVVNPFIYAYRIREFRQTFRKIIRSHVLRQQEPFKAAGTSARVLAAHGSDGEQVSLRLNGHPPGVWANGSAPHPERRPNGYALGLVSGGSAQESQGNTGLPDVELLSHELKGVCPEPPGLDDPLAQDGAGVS
Chain of human A3AdoR (P0DMS8 whole entry): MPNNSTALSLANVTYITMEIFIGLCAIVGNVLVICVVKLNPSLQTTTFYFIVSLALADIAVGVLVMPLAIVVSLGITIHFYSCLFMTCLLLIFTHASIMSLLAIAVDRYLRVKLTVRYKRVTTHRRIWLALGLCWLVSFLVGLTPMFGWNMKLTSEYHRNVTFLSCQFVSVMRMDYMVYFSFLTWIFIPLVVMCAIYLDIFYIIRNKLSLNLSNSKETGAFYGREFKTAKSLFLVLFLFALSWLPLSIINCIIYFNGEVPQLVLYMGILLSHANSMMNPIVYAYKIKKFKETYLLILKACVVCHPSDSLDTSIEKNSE
Chain of A1 AdoR (Cavia porcellus (Guinea pig), UniProt P47745) (P47745 whole entry): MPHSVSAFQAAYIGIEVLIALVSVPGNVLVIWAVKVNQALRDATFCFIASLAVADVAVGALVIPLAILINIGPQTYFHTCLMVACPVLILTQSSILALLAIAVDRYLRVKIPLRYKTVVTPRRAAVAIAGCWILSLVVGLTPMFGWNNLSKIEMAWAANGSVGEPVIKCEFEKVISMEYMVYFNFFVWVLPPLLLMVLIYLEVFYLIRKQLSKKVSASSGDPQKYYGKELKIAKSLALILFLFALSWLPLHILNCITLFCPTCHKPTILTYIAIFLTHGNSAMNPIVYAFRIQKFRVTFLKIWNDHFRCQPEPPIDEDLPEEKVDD
Chain of A1 AdoR (Rattus norvegicus (Rat), UniProt P25099) (P25099 whole entry, the tested form may be a part): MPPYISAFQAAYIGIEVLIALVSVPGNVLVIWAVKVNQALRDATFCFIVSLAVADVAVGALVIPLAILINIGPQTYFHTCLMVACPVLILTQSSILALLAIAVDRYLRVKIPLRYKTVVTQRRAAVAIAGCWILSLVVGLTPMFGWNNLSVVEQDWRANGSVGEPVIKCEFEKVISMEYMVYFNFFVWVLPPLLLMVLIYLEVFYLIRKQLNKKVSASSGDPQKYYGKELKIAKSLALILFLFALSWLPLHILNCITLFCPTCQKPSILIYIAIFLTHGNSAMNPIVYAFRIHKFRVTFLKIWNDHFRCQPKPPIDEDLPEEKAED
Chain of A2A AdoR (Rattus norvegicus (Rat), UniProt P30543) (P30543 whole entry): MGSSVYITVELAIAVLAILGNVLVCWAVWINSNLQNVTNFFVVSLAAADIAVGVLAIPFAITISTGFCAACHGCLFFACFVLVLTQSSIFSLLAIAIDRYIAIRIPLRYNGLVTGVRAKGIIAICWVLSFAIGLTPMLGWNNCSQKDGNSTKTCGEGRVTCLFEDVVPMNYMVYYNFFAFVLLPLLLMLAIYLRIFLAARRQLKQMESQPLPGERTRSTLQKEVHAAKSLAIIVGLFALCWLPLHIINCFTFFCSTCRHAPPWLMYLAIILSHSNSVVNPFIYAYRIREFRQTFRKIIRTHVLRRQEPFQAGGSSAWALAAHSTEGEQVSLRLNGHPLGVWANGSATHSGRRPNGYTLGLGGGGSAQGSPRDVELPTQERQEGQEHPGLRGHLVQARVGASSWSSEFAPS
Chain of A2A AdoR (Cavia porcellus (Guinea pig), UniProt P46616) (P46616 whole entry): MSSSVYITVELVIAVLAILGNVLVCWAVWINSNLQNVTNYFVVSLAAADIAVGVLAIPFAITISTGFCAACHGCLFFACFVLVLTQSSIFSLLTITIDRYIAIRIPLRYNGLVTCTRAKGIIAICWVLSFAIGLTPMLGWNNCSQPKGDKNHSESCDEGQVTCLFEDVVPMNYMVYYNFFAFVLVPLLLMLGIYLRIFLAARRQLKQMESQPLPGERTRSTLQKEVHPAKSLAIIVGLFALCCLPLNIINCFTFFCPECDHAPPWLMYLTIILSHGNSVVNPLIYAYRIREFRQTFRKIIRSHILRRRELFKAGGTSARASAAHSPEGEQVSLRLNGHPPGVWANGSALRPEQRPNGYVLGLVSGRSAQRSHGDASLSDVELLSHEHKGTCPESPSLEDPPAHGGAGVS
Chain of A2A receptor (K9IW67 1-409): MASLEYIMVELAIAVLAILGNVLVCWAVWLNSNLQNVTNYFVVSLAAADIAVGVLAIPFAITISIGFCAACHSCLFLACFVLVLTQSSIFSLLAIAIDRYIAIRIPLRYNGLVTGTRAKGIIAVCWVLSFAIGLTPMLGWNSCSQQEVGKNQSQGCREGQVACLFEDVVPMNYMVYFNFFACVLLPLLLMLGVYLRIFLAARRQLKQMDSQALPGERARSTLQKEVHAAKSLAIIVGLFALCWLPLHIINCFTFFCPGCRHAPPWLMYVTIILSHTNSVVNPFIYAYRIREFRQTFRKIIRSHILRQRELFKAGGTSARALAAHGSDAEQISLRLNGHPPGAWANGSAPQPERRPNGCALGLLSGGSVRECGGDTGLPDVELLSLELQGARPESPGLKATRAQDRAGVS
Chain of human A2BAdoR (P29275 whole entry): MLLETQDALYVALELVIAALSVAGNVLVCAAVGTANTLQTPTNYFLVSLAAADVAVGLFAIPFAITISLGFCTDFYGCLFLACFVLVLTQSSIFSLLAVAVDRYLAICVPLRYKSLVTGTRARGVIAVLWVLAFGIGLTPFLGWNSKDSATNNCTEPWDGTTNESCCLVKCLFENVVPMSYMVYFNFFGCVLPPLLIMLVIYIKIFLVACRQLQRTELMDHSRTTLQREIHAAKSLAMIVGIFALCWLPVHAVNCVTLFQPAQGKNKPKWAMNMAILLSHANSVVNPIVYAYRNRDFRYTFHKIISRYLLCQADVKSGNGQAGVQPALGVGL

With `CNC(=O)c1cnn(-c2nc(N)c3ncn(C4O[C@H](CO)[C@@H](O)[C@H]4O)c3n2)c1` (stereo partly drawn) [Compound 16, (1-{9-[(4S,2R,3R,5R)-3,4-dihydroxy-5-(bydroxymethyl)oxolan-2-yl]-6-aminopurin-2-yl}pyrazol-4-yl)-N-methylcarboxamide], the EC50 in test [1] was determined as 4 ± 2.3 µM; in [5], 0.0186 ± 0.006 µM; in test [6], 0.0064 ± 0.0006 µM. Further, in test [2], the “Decrease of specific binding of [3H]CPX (HEK-hA2BAdoR)” value came out at 20%. Further, the “A2A affinity in words” value in test [3] is recorded as “low affinity A2A agonist”. Besides, the Ki in test [4] is 1 to 10 µM; in test [7] (read-out: Binding Affinity Ki, CHO-hA1AR), over 16.5 µM; in test [7] (read-out: Binding Affinity pKi ± SEM, CHO-hA1AR (converted)) it was 25.7 µM. Besides, the “Effect on A-V nodal conduction time” value in [8] was “did not prolong”. The “Decrease of specific binding of [125I]IBMECA (CHO-hA3AdoR)” value in [9] was 22%.
